According to article PMC11219871, “Epigenetic-based differentiation therapy for Acute Myeloid Leukemia” (Nature Communications, 2024):
Where “and” joins values, the source holds several entries; their conditions need not be identical. Identical values can stand only once.

Experiments:
MOLM-13 = assay: Cell-cycle analysis; assay type: cell-based, human; conditions: MOLM-13, 48 hours
Experimental: (§1) […] Next, the cells were washed twice with PBS and resuspended in 0.2% Tween 20 in PBS and 0.5 mg/mL Rnase A (Ribonuclease A Type III-A from bovine pancreas, Cat No. R5125, Sigma), and then incubated for 30 min at 37 °C. Subsequently, the cells were stained with 25 μg/mL of propidium iodide (Cat No P4170, Sigma) and analyzed using a BD FACSCanto flow cytometer (Becton Dickinson, San Jose, CA, USA).

ML-2 [1] = assay: Cell-cycle analysis; assay type: cell-based, human; conditions: ML-2, treatment for 48 hours; replicates 1-3 (Figure 2F)
Experimental: as §1

HL-60 = assay: Cell-cycle analysis; assay type: cell-based, human; conditions: HL-60, treatment for 48 hours; replicates 1-3 (Figure 2F)
Experimental: as §1

MV4-11 = assay: Cell-cycle analysis; assay type: cell-based, human; conditions: MV4-11, 48 hours
Experimental: as §1

TF-1 = assay: Cell proliferation assay: GI50; assay type: cell-based
Experimental: (§2) Cell proliferation was analyzed using the CellTiter 96 Aqueous One Solution Cell Proliferation Assay (Promega, Madison, WI). This is a colorimetric method for determining the number of viable cells in proliferation. For the assay, suspension cells were cultured in triplicate at a density of 1 × 10^6 cells/mL in 96-well plates (100.000 cells/well, 100 µL/well), using only the 60 inner wells to avoid any border effects. After 48 h of treatment with different doses of each compound (0, 0.001, 0.01, 0.1, 0.2, 0.4, 0.6, 0.8, 1, 2, 3, 4, 5 and 10 µM), the plates were centrifuged at 800 g for 10 min followed by removal of the medium. Then, the cells were incubated with 100 μL/well of medium and 20 μL/well of CellTiter 96 Aqueous One Solution reagent for 1–3 h. The absorbance was recorded at 490 and 650 nm as reference wavelengths using 96-well plate readers until the absorbance of the control cells without treatment was approximately 0.8 AU. The background absorbance was measured in wells with only cell line medium and solution reagent. First, the average of the absorbance from the control wells was subtracted from all other absorbance values. Data were calculated as the percentage of total absorbance of treated cells/absorbance of non-treated cells. The GI50 values of the different compounds were determined using non-linear regression plots made with GraphPad Prism v5 software.

UT-7 = assay: Cell proliferation assay: GI50; assay type: cell-based
Experimental: as §2

OCI-AML3 = assay: Cell proliferation assay: GI50; assay type: cell-based
Experimental: as §2

THP-1 = assay: Cell proliferation assay: GI50; assay type: cell-based
Experimental: as §2

NB-4 = assay: Cell proliferation assay: GI50; assay type: cell-based
Experimental: as §2

KASUMI-1 = assay: Cell proliferation assay: GI50; assay type: cell-based
Experimental: as §2

M-07e = assay: Cell proliferation assay: GI50; assay type: cell-based
Experimental: as §2

OCI-AML2 = assay: Cell proliferation assay: GI50; assay type: cell-based
Experimental: as §2

HEL = assay: Cell proliferation assay: GI50; assay type: cell-based
Experimental: as §2

MONO-MAC-6 = assay: Cell proliferation assay: GI50; assay type: cell-based
Experimental: as §2

GF-D8 = assay: Cell proliferation assay: GI50; assay type: cell-based
Experimental: as §2

ML-2 [2] = assay: Differentiation-apoptosis assay, CD11b / annexin-V / Sytox Green / myeloid markers flow cytometry; assay type: cell-based, human; set-up: Cell viability: concentration or dose not given beside the values; CD11b levels: unit not given here; conditions: for CD11b / Cell viability: replicates (Fig 4A)
Experimental: Next, the cells were washed twice with phosphate-buffered saline (PBS) and resuspended in 1X Binding Buffer at a concentration of 1 × 10^6 cells/mL. An 8-µL aliquot of APC-CD11b (BD Pharmingen, Franklin Lakes, NJ, USA) and 1 µL of FITC annexin-V (AV) (BD Pharmingen, Franklin Lakes, NJ, USA) antibodies were added and incubated for 15 min at room temperature in the dark. Finally, after the addition of 400 µL of 1X Binding Buffer to each tube, samples were collected on a BD FACSCanto flow cytometer (Becton Dickinson, San Jose, CA, USA) and analyzed using FlowJo software.
For the rest of experiments, the mix of antibodies (2 µL of BV786-CD13, Cat No, 744748 BD; 1 µL of diluted 1:10 antibody of PB-HLADR, Cat No 307633, Biolegend; 5 µL of APCH7-CD14, Cat No 641394, BD) was added to 10 µL of Brilliant Stain Buffer Plus (Becton Dickinson, San Jose, CA, USA). Then, 1 million cells (volume of 250 µL) were added and incubated for 30 min at room temperature in darkness. After 10 min incubation at room temperature with 2 mL of FACSLysing 1X, cells were centrifuged at 540 g for 5 min and washed twice with FACSBuffer. Finally, after centrifugation at 540 g for 5 min cells were resuspended in FACSBuffer.

[3] = Homo sapiens, TF-1, TF-1, replicates 1-3
[4] = Homo sapiens, UT7, UT-7, replicates 1-3
[5] = Homo sapiens, OCI-AML-3, OCI-AML3, 48 h
[6] = Homo sapiens, OCI-AML-3, OCI-AML3, replicates 1-3
[7] = Homo sapiens, THP-1, replicates 1-3
[8] = Homo sapiens, NB-4, NB-4, replicates 1-3
[9] = Homo sapiens, Kasumi 1, 48 h, KASUMI-1, 48 h
[10] = Homo sapiens, Kasumi 1, KASUMI-1, replicates 1-3
[11] = Homo sapiens, OCI-AML2, OCI-AML2, replicates 1-3
[12] = Homo sapiens, MONO-MAC-6, MONO-MAC-6, replicates 1-3
[13] = ML-2, daily treatment, time 0 days, replicates 1-3 (Figure 2B)
[14] = ML-2, daily treatment, time 2 days, replicates 1-3 (Figure 2B)
[15] = ML-2, daily treatment, time 4 days, replicates 1-3 (Figure 2B)
[16] = ML-2, daily treatment, time 6 days, replicates 1-3 (Figure 2B)
[17] = ML-2, daily treatment, time 8 days, replicates 1-3 (Figure 2B)
[18] = ML-2 cell line, replicates 1-3 (Figure 2A)

## COc1cc2nc(-c3cc(C)oc3C)cc(NCC3CCN(c4ncc(C(=O)NO)cn4)CC3)c2cc1OC [CM-1758, 2-[4-[[[2-(2,5-dimethyl-3-furyl)-6,7-dimethoxy-4-quinolyl]amino]methyl] -1-piperidyl]pyrimidine-5-carbohydroxamic acid]
MOLM-13
  Cell number (%) G1: 94.79% and 97.36% and 97.43%
  Cell number (%) G2/M: 0.72% and 2.84% and 0.69%
  Cell number (%) S: 2.37% and 1.95% and 1.85%
ML-2 [1]
  Cell number (%) G1: 90.78% and 86.19% and 89.03%
  Cell number (%) G2/M: 6.71% and 3.95% and 9.23%
  Cell number (%) S: 5.26% and 4.58% and 4.26%
HL-60
  Cell number (%) G1: 79.37% and 83.97% and 81.85%
  Cell number (%) G2/M: 6.97% and 12.93% and 5.78%
  Cell number (%) S: 7.70% and 10.26% and 11.19%
MV4-11
  Cell number (%) G1: 84.98% and 89.31% and 85.09%
  Cell number (%) G2/M: 8.40% and 10.00% and 4.67%
  Cell number (%) S: 5.02% and 6.02% and 6.51%
TF-1; [3]
  GI50: 2960 nM
TF-1; TF-1, replicates 1-3
  GI50: 2580 nM and 2690 nM
UT-7; [4]
  GI50: 3.69 µM
UT-7; UT-7, replicates 1-3
  GI50: 3.94 µM and 3.67 µM
OCI-AML3; [5]
  GI50: > 10 µM
OCI-AML3; [6]
  GI50: > 10 µM
OCI-AML3; OCI-AML3, replicates 1-3
  GI50: > 10 µM
THP-1; Homo sapiens, THP-1, 48 h
  GI50: > 10 µM
THP-1; [7]
  GI50: > 10 µM
THP-1; THP-1, replicates 1-3
  GI50: > 10 µM
NB-4; Homo sapiens, NB-4, 48 h
  GI50: 857 nM
NB-4; [8]
  GI50: 987 nM
NB-4; NB-4, replicates 1-3
  GI50: 714 nM and 870 nM
KASUMI-1; [9]
  GI50: 578 nM
KASUMI-1; [10]
  GI50: 721 nM
KASUMI-1; KASUMI-1, replicates 1-3
  GI50: 635 nM and 379 nM
M-07e; replicates 1-3
  GI50: 1320 nM and 1990 nM and 1190 nM
OCI-AML2; Homo sapiens, OCI-AML2, 48 h
  GI50: 774 nM
OCI-AML2; [11]
  GI50: 954 nM
OCI-AML2; OCI-AML2, replicates 1-3
  GI50: 712 nM and 655 nM
HEL; Homo sapiens, replicates 1-3
  GI50: 1880 nM
HEL; replicates 1-3
  GI50: 1320 nM and 1360 nM
MONO-MAC-6; Homo sapiens, MONO-MAC-6, 48 h
  GI50: 617 nM
MONO-MAC-6; [12]
  GI50: 785 nM
MONO-MAC-6; MONO-MAC-6, replicates 1-3
  GI50: 600 nM and 466 nM
GF-D8; 48 h, GF-D8, 48 h
  GI50: > 10 µM
GF-D8; GF-D8, replicates 1-3
  GI50: > 10 µM
ML-2 [2]; ML-2, 260 nM CM-444 or 210 nM CM-1758 daily for 4 days, before injection
  percentage of CD11b: > 90%
ML-2 [2]; ML-2, 48 h
  CD11b (%): 75.6%
  CD13 (%): 98.6%
  CD14 (%): 2.86%
  HLA-DR (%): 17.4%
  CD11b: 64.3% and 61.7% and 64.6%
  Cell viability: 89.3% and 72.6% and 87.1%
ML-2 [2]; ML-2, after 6–8 days of treatment
  differentiation level (CD11b): ~90%
ML-2 [2]; [13]
  Annexin-V (%): 0% and 1.81% and 2.3%
  CD11b (%): 9.3% and 9.32% and 7.24%
ML-2 [2]; [14]
  Annexin-V (%): 0% and 5.74% and 8.47%
  CD11b (%): 46.98% and 27.2% and 35.8%
ML-2 [2]; [15]
  Annexin-V (%): 10.26% and 4.49% and 5.25%
  CD11b (%): 56.51% and 40.8% and 55.87%
ML-2 [2]; [16]
  Annexin-V (%): 4.87% and 1.99% and 9.87%
  CD11b (%): 77.98% and 70% and 78.6%
ML-2 [2]; [17]
  Annexin-V (%): 5.37% and 6.87% and 10.45%
  CD11b (%): 88.06% and 83.2% and 89.7%
ML-2 [2]; [18]
  CD11b (%): 53.45% and 67.6% and 52.5%
ML-2 [2]; ML-2 treated daily for 48 h, replicates (Fig 6E)
  CD11b levels: 45.9 and 51.7 and 43.7

## CC1=C(/C=C/C(C)=C/C=C/C(C)=C/C(=O)O)C(C)(C)CCC1 [ATRA, all-trans retinoic acid, reference compound]
TF-1; Homo sapiens, TF-1, 48 h
  GI50: > 10000 nM
TF-1; [3]
  GI50: > 10000 nM
TF-1; TF-1, replicates 1-3
  GI50: > 10000 nM
UT-7; Homo sapiens, UT7, 48 h, UT-7, 48 h
  GI50: > 10 µM
UT-7; [4]
  GI50: > 10 µM
UT-7; UT-7, replicates 1-3
  GI50: > 10 µM
OCI-AML3; [5]
  GI50: > 10 µM
OCI-AML3; [6]
  GI50: > 10 µM
OCI-AML3; OCI-AML3, replicates 1-3
  GI50: > 10 µM
THP-1; Homo sapiens, THP-1, 48 h
  GI50: > 10 µM
THP-1; [7]
  GI50: > 10 µM
THP-1; THP-1, replicates 1-3
  GI50: > 10 µM
NB-4; Homo sapiens, NB-4, 48 h
  GI50: > 10000 nM
NB-4; [8]
  GI50: > 10000 nM
NB-4; NB-4, replicates 1-3
  GI50: > 10000 nM
KASUMI-1; [9]
  GI50: > 10000 nM
KASUMI-1; [10]
  GI50: > 10000 nM
KASUMI-1; KASUMI-1, replicates 1-3
  GI50: > 10000 nM
M-07e; 48 h
  GI50: > 10000 nM
M-07e; replicates 1-3
  GI50: > 10000 nM
OCI-AML2; Homo sapiens, OCI-AML2, 48 h
  GI50: > 10000 nM
OCI-AML2; [11]
  GI50: > 10000 nM
OCI-AML2; OCI-AML2, replicates 1-3
  GI50: > 10000 nM
HEL; Homo sapiens, 48 h
  GI50: > 10000 nM
HEL; Homo sapiens, replicates 1-3
  GI50: > 10000 nM
HEL; replicates 1-3
  GI50: > 10000 nM
MONO-MAC-6; Homo sapiens, MONO-MAC-6, 48 h
  GI50: > 10000 nM
MONO-MAC-6; [12]
  GI50: > 10000 nM
MONO-MAC-6; MONO-MAC-6, replicates 1-3
  GI50: > 10000 nM
GF-D8; 48 h, GF-D8, 48 h
  GI50: > 10 µM
GF-D8; GF-D8, replicates 1-3
  GI50: > 10 µM
ML-2 [2]; [18]
  CD11b (%): 5.2% and 4.2% and 6.05%

## Cc1[nH]c2ccccc2c1CCNCc1ccc(/C=C/C(=O)NO)cc1 [Panobinostat, reference compound]
ML-2 [2]; ML-2, 48 h
  CD11b: 36.1% and 27.0% and 28.8%
  Cell viability: 69.0% and 63.1% and 66.5%

## O=C(CCCCCCC(=O)Nc1ccccc1)NO [Vorinostat, reference compound]
ML-2 [2]; ML-2, 48 h
  CD11b: 25.0% and 20.7% and 16.1%
  Cell viability: 86.1% and 82.9% and 82.7%
